Experimental data as given in patent US20250170090A1, “METHOD FOR PREVENTING OR TREATING DISEASE OR DISORDER ASSOCIATED WITH ANTINEOPLASTIC AGENT” (ONQUALITY PHARMACEUTICALS CHINA LTD., priority 2022, published 2025).

Columns and labels:
[1] = system: hand-foot syndrome caused by macromolecular anti-tumor agents; test: Prevention of hand-foot syndrome caused by macromolecular protein inhibitors in rats (Table 3); format: in vivo
[2] = system: hand-foot syndrome caused by anti-tumor agents; test: Treatment of established hand-foot syndrome caused by anti-tumor agents in rats (Table 4); format: in vivo
Outline: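 Rats (about 200 g), 10 per group, given anti-tumor agent by gavage (Cremophor EL:ethanol 1:1, diluted about 3 times with PBS), treated for established hand-foot syndrome with NO-NSAID ointment. Control rate is the blank-group incidence minus the treatment-group incidence.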

[3] = system: chemotherapy-induced hand-foot syndrome; test: Prevention of chemotherapy-induced hand-foot syndrome in rat models (Table 5); format: in vivo, SD rats
Outline: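 SD rats (~200 g, 10 per group) received chemotherapy drugs by gavage at 1 mL/100 g, then NO-NSAID ointment or blank ointment was applied to the paws. Hand-foot syndrome incidence was recorded, and control rate was taken as blank-group incidence minus treated-group incidence.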

[4] = system: human immortalized keratinocytes (HaCaT); test: CCK-8 cell viability: alleviation of proliferative toxicity of anti-tumor agents on HaCaT (Table 8-1); format: cell-based; conditions: NO-NSAID 100 μM, percentage increase in viable cells vs anti-tumor agent alone
Outline: (§1)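 Cells seeded at 5,000-10,000 per well and exposed to anti-tumor agent (DMSO solvent) alone or with NO-NSAID (ethanol or water solvent), with solvent controls used for correction. Viability read by CCK-8 after 24-48 hours; proliferative toxicity and its alleviation compared by t test.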

[5] = system: human oral keratinocytes (HOK); test: CCK-8 cell viability: alleviation of proliferative toxicity of anti-tumor agents on HOK (Table 8-2); format: cell-based; conditions: NO-NSAID 100 μM
Outline: as §1

[6] = system: gastric epithelial cells (GES-1); test: CCK-8 cell viability: alleviation of proliferative toxicity of anti-tumor agents on GES-1 (Table 8-3); format: cell-based, human; conditions: NO-NSAID 100 μM
Outline: as §1

[7] = system: human intestinal epithelial cells (FHs 74 Int); test: CCK-8 cell viability: alleviation of proliferative toxicity of anti-tumor agents on FHs 74 Int (Table 8-4); format: cell-based; conditions: NO-NSAID 100 μM
Outline: as §1

## COc1ccc2cc(C(C)C(=O)OCCCCO[N+](=O)[O-])ccc2c1 (stereo not drawn) [Compound A5]
[1]; Bevacizumab, 5-FU combination, tail vein injection once a week, ointment 2.50% wt, Days 18
  Control rate: 50.00%
[1]; Bevacizumab, 5-FU combination, tail vein injection once a week, ointment 5% wt, Days 18
  Control rate: 66.67%
[1]; Ramucirumab combined with paclitaxel, intraperitoneal injection once a week, ointment 2.50% wt, Days 23
  Control rate: 33.33%
[1]; Ramucirumab combined with paclitaxel, intraperitoneal injection once a week, ointment 5% wt, Days 23
  Control rate: 50.00%
[2]; Apatinib 105 mg/kg once every two days, ointment 2.50% wt, Days 6
  Response rate: 28.57%
[2]; Cabozantinib 50 mg/kg once every two days, ointment 1% wt, Days 11
  Response rate: 33.33%
[2]; Encorafenib 80 mg/kg once every two days, ointment 2.50% wt, Days 7
  Response rate: 40.00%
[2]; Erdafitinib 45 mg/kg once every two days, ointment 2.50% wt, Days 13
  Response rate: 40.00%
[2]; Fruquintinib 40 mg/kg once every two days, ointment 2.50% wt, Days 8
  Response rate: 28.57%
[2]; Lenvatinib 65 mg/kg once a day, ointment 2.50% wt, Days 12
  Response rate: 42.86%
[2]; Olmutinib 100 mg/kg once every two days, ointment 2.50% wt, Days 10
  Response rate: 50.00%
[2]; Regorafenib 90 mg/kg once every two days, ointment 5% wt, Days 6
  Response rate: 57.14%
[2]; Sorafenib 80 mg/kg once every two days, ointment 2.50% wt, Days 5
  Response rate: 50.00%
[2]; Sunitinib 120 mg/kg once every two days, ointment 2.50% wt, Days 7
  Response rate: 33.33%
[3]; Acelarin 130 mg/kg twice a week, ointment 1% wt, Days 30
  Control rate: 28.57%
[3]; Acelarin 130 mg/kg twice a week, ointment 2.50% wt, Days 30
  Control rate: 57.14%
[3]; Capecitabine 4000 mg/kg once a day, ointment 1% wt, Days 40
  Control rate: 12.50%
[3]; Capecitabine 4000 mg/kg once a day, ointment 2.50% wt, Days 40
  Control rate: 22.22%
[3]; Capecitabine 4000 mg/kg once a day, ointment 5% wt, Days 40
  Control rate: 50.00%
[3]; Cytarabine 120 mg/kg twice a day, ointment 1% wt, Days 30
  Control rate: 14.29%
[3]; Cytarabine 120 mg/kg twice a day, ointment 2.50% wt, Days 30
  Control rate: 28.57%
[3]; Cytarabine 120 mg/kg twice a day, ointment 5% wt, Days 30
  Control rate: 57.14%
[3]; Doxorubicin 7 mg/kg once every three days, ointment 1% wt, Days 30
  Control rate: 37.50%
[3]; Doxorubicin 7 mg/kg once every three days, ointment 2.50% wt, Days 30
  Control rate: 50.00%
[4]; Afatinib (10 μM)
  Response rate % (average): 32%
[4]; Cabozantinib (5 μM)
  Response rate % (average): 44%
[4]; Dabrafenib (10 μM)
  Response rate % (average): 7%
[4]; Everolimus (5 μM)
  Response rate % (average): 9%
[4]; Infigratinib (15 μM)
  Response rate % (average): 12%
[4]; Lapatinib (5 μM)
  Response rate % (average): 41%
[4]; Lenvatinib (10 μM)
  Response rate % (average): 9%
[4]; Olmutinib (10 μM)
  Response rate % (average): 40%
[4]; Regorafenib (5 μM)
  Response rate % (average): 22%
[4]; Selumetinib (5 μM)
  Response rate % (average): 13%
[4]; Sorafenib (5 μM)
  Response rate % (average): 31%
[4]; Sunitinib (5 μM)
  Response rate % (average): 33%
[5]; Afatinib (10 μM)
  Response rate % (average): 36%
[5]; Cabozantinib (5 μM)
  Response rate % (average): 32%
[5]; Dabrafenib (10 μM)
  Response rate % (average): 8%
[5]; Everolimus (5 μM)
  Response rate % (average): 10%
[5]; Infigratinib (15 μM)
  Response rate % (average): 17%
[5]; Lapatinib (5 μM)
  Response rate % (average): 22%
[5]; Lenvatinib (10 μM)
  Response rate % (average): 25%
[5]; Olmutinib (10 μM)
  Response rate % (average): 38%
[5]; Regorafenib (5 μM)
  Response rate % (average): −2%
[5]; Selumetinib (5 μM)
  Response rate % (average): 8%
[5]; Sorafenib (5 μM)
  Response rate % (average): 28%
[5]; Sunitinib (5 μM)
  Response rate % (average): 29%
[6]; Afatinib (10 μM)
  Response rate % (average): 18%
[6]; Cabozantinib (5 μM)
  Response rate % (average): 37%
[6]; Dabrafenib (10 μM)
  Response rate % (average): 12%
[6]; Everolimus (5 μM)
  Response rate % (average): 33%
[6]; Infigratinib (15 μM)
  Response rate % (average): 36%
[6]; Lapatinib (5 μM)
  Response rate % (average): 40%
[6]; Lenvatinib (10 μM)
  Response rate % (average): 29%
[6]; Olmutinib (10 μM)
  Response rate % (average): 35%
[6]; Regorafenib (5 μM)
  Response rate % (average): 14%
[6]; Selumetinib (5 μM)
  Response rate % (average): 12%
[6]; Sorafenib (5 μM)
  Response rate % (average): 22%
[6]; Sunitinib (5 μM)
  Response rate % (average): 21%
[7]; Afatinib (10 μM)
  Response rate % (average): 34%
[7]; Cabozantinib (5 μM)
  Response rate % (average): 36%
[7]; Dabrafenib (10 μM)
  Response rate % (average): −3%
[7]; Everolimus (5 μM)
  Response rate % (average): 28%
[7]; Infigratinib (15 μM)
  Response rate % (average): 16%
[7]; Lapatinib (5 μM)
  Response rate % (average): 43%
[7]; Lenvatinib (10 μM)
  Response rate % (average): 32%
[7]; Olmutinib (10 μM)
  Response rate % (average): 31%
[7]; Regorafenib (5 μM)
  Response rate % (average): 17%
[7]; Selumetinib (5 μM)
  Response rate % (average): 23%
[7]; Sorafenib (5 μM)
  Response rate % (average): 24%
[7]; Sunitinib (5 μM)
  Response rate % (average): 38%
